Assay results from patent US8067445B2, “N,N-disubstituted aminoalkylbiphenyl antagonists of prostaglandin D2 receptors” (Panmira Pharmaceuticals, LLC, priority 2008, dated 2011).

Target: T1, human DP2 receptor (Homo sapiens, UniProt Q9Y5Y4)
T1 construct: expressed in transfected cells
T1 sequence (Q9Y5Y4 1-395): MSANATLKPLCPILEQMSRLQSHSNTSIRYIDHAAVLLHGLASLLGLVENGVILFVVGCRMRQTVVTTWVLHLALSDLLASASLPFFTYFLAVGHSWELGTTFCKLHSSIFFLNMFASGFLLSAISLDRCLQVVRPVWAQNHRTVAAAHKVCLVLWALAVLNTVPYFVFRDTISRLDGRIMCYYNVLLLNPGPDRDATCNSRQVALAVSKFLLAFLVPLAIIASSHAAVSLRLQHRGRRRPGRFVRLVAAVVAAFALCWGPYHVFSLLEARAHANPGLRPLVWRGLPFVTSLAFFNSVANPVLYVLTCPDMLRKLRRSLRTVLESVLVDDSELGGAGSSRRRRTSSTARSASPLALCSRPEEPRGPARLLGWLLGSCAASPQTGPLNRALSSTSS
Test: DP2/CRTH2 radioligand binding assay ([3H]PGD2)
Details: [3H]PGD2 binding, membranes of HEK293 cells expressing human DP2; read-out: hDP2
Procedure: The ability of a compound to bind to the human DP2 receptor is assessed via a radioligand binding assay using [^3H]PGD2. HEK293 cells stably expressing recombinant human DP2 are resuspended in 10 mM Hepes, 7.4 containing 1 mM DTT, lysed and centrifuged at 75,000×g to pellet the membranes. The membranes are resuspended in 10 mM Hepes, 7.4 containing 1 mM DTT and 10% glycerol to approximately 5 mg protein/ml. Membranes (2-10 μg protein/well) are incubated in 96-well plates with 1 nM [^3H]PGD2 and test compound in Assay Buffer (50 mM Hepes, 10 mM MnCl2, 1 mM EDTA, plus or minus 0.2% human serum albumin, pH 7.4) for 60 minutes at room temperature. The reactions are terminated by rapid filtration through Whatman GF/C glass fibre filter plates. The filter plates were pre-soaked in 0.33% polyethylenimine for 30 minutes at room temperature then washed in Wash Buffer (50 mM Hepes, 0.5 M NaCl pH 7.4) prior to harvesting. After harvesting, the filter plates are washed 3 times with 1 ml cold Wash Buffer then dried. Scintillant is then added to the plates and the radioactivity retained on the filters is determined on a Packard TopCount (Perkin Elmer). Specific binding is determined as total radioactive binding minus non-specific binding in the presence of 10 μM PGD2. IC50s were determined using GraphPad prism analysis of drug titration curves.

Row | SMILES | IC50 [nM]
1 | CCOC(=O)Cc1ccc(OC)c(-c2ccc(C(=O)O)cc2CN(CC)C(=O)OCc2ccccc2)c1 [Compound 2-14, 2-[(Benzyloxycarbonyl-ethyl-amino)-methyl]-5′-ethoxycarbonylmethyl-2′-methoxy-biphenyl-4-carboxylic acid] | 1000 to 30000
2 | CCN(Cc1cc(C(F)(F)F)ccc1-c1cc(Cl)cc(C(C)C(=O)O)c1)C(C)=O (stereo not shown) [Compound 1-211, 2-{2′-[(Acetyl-ethyl-amino)-methyl]-5-chloro-4′-trifluoromethyl-biphenyl-3-yl}-propionic acid] | < 300
3 | CCN(Cc1cc(C(F)(F)F)ccc1-c1cc(CC(=O)O)cc(C(F)(F)F)c1)C(=O)c1ccccc1 [Compound 1-204, {2′-[(Benzoyl-ethyl-amino)-methyl]-5,4′-bis-trifluoromethyl-biphenyl-3-yl}-acetic acid] | < 300
4 | CCN(Cc1cc(C(F)(F)F)ccc1-c1cc(CC(=O)O)cc(C(F)(F)F)c1)C(=O)OCc1ccc(F)cc1 [Compound 1-191, (2′-{[Ethyl-(4-fluoro-benzyloxycarbonyl)-amino]-methyl}-5,4′-bis-trifluoromethyl-biphenyl-3-yl)-acetic acid] | < 300
5 | CCN(Cc1ccc(OC)cc1-c1cc(CC(=O)O)ccc1OC)C(=O)NCc1ccccc1 [Compound 1-197, [2′-(3-Benzyl-1-ethyl-ureidomethyl)-6,5′-dimethoxy-biphenyl-3-yl]-acetic acid] | < 300
6 | CCN(Cc1cc(C(F)(F)F)ccc1-c1cc(CC(=O)O)ccc1OC)C(=O)NCc1ccncc1 [Compound 1-199, [2′-(1-Ethyl-3-pyridin-4-ylmethyl-ureidomethyl)-6-methoxy-4′-trifluoromethyl-biphenyl-3-yl]-acetic acid] | < 300
7 | CCN(Cc1cc(C(F)(F)F)ccc1-c1cc(Cl)cc(CC(=O)O)c1)C(=O)NCc1ccc(Cl)cc1 [Compound 1-192, {5-Chloro-2′-[3-(4-chloro-benzyl)-1-ethyl-ureidomethyl]-4′-trifluoromethyl-biphenyl-3-yl}-acetic acid] | < 300
8 | CCN(Cc1cc(C(F)(F)F)ccc1-c1cc(C(C)C(=O)O)ccc1OC)C(=O)NC1CC1 (stereo not shown) [Compound 1-243, 2-[2′-(3-Cyclopropyl-1-ethyl-ureidomethyl)-6-methoxy-4′-trifluoromethyl-biphenyl-3-yl]-propionic acid] | < 300
9 | CCN(Cc1cc(C(F)(F)F)ccc1-c1cc(Cl)cc(CC(=O)O)c1)C(=O)OCc1ccc(F)cc1 [Compound 1-190, (5-Chloro-2′-{[ethyl-(4-fluoro-benzyloxycarbonyl)-amino]-methyl}-4′-trifluoromethyl-biphenyl-3-yl)-acetic acid] | < 300
10 | CCN(Cc1cc(C(F)(F)F)ccc1-c1cc(C(C)C(=O)O)cc(C(F)(F)F)c1)C(=O)C1CC1 (stereo not shown) [Compound 1-214, 2-{2′-[(Cyclopropanecarbonyl-ethyl-amino)-methyl]-5,4′-bis-trifluoromethyl-biphenyl-3-yl}-propionic acid] | < 300
11 | CCN(Cc1cc(C(F)(F)F)ccc1-c1cc([C@H](C)C(=O)N2C(=O)O[C@@H](c3ccccc3)[C@H]2C)cc(C(F)(F)F)c1)C(=O)C1CC1 [Compound 2-16, Cyclopropanecarboxylic acid ethyl-{3′-[(S)-1-methyl-2((4R,5S)-4-methyl-2-oxo-5-phenyl-oxazolidin-3-yl)-2-oxo-ethyl]-4,5′-bis-trifluoromethyl-biphenyl-2-ylmethyl}-amide] | 1000 to 30000
12 | CCN(Cc1cc(C(F)(F)F)ccc1-c1cc(CC(=O)O)ccc1OC)C(=O)NCc1cccnc1 [Compound 1-198] | < 300
13 | CCN(Cc1ccc(OC)cc1-c1cc(Cl)cc(CC(=O)O)c1)C(=O)COc1ccc(Cl)cc1 [Compound 1-221, [5-Chloro-2′-({[2-(4-chloro-phenoxy)-acetyl]-ethyl-amino}-methyl)-5′-methoxy-biphenyl-3-yl]-acetic acid] | < 300
14 | CCN(Cc1cc(C(F)(F)F)ccc1-c1cc(CC(=O)O)ccc1OC)C(=O)CCc1ccccc1 [Compound 1-208, (2′-{[Ethyl-(3-phenyl-propionyl)-amino]-methyl}-6-methoxy-4′-trifluoromethyl-biphenyl-3-yl)-acetic acid] | < 300
15 | CCN(Cc1cc(C(F)(F)F)ccc1-c1cc(Cl)cc(C(C)C(=O)O)c1)C(=O)C1CC1 (stereo not shown) [Compound 1-212, 2-{5-Chloro-2′-[(cyclopropanecarbonyl-ethyl-amino)-methyl]-4′-trifluoromethyl-biphenyl-3-yl}-propionic acid] | < 300

Continued, values first:

Row | IC50 [nM] | SMILES
16 | < 300 | CCN(Cc1cc(C(F)(F)F)ccc1-c1cc(CC(=O)O)ccc1OC)C(=O)Cc1ccccc1 [Compound 1-207, {2′-[(Ethyl-phenylacetyl-amino)-methyl]-6-methoxy-4′-trifluoromethyl-biphenyl-3-yl}-acetic acid]
17 | < 300 | CCN(Cc1cc(C(F)(F)F)ccc1-c1cc(CC(=O)O)cc(C(F)(F)F)c1)C(=O)NC [Compound 1-202, [2′-(1-Ethyl-3-methyl-ureidomethyl)-5,4′-bis-trifluoromethyl-biphenyl-3-yl]-acetic acid]
18 | < 300 | CCN(Cc1cc(C(F)(F)F)ccc1-c1cc(CC(=O)O)ccc1OC)C(N)=O [Compound 1-210, {2′-[(1-Ethyl-ureido)-methyl]-6-methoxy-4′-trifluoromethyl-biphenyl-3-yl}-acetic acid]
19 | < 300 | CCN(Cc1ccc(OC)cc1-c1cc(Cl)cc(CC(=O)O)c1)C(=O)NCc1ccccc1 [Compound 1-219, [2′-(3-Benzyl-1-ethyl-ureidomethyl)-5-chloro-5′-methoxy-biphenyl-3-yl]-acetic acid]
20 | < 300 | CCOc1ccc(-c2ccc(-c3cc(CC(=O)O)ccc3OC)c(CN(CC)C(=O)CCc3ccccc3)c2)cn1 [Compound 1-256, (4′-(6-Ethoxy-pyridin-3-yl)-2′-{[ethyl-(3-phenyl-propionyl)-amino]-methyl}-6-methoxy-biphenyl-3-yl)-acetic acid]
21 | 1000 to 30000 | CCN(Cc1cc(C(F)(F)F)ccc1-c1cc([C@@H](C)C(=O)N2C(=O)O[C@@H](c3ccccc3)[C@H]2C)cc(C(F)(F)F)c1)C(=O)C1CC1 [Compound 2-15, Cyclopropanecarboxylic acid ethyl-{3′-[(R)-1-methyl-2-((4R,5S)-4-methyl-2-oxo-5-phenyl-oxazolidin-3-yl)-2-oxo-ethyl]-4,5′-bis-trifluoromethyl-biphenyl-2-ylmethyl}-amide]
22 | < 300 | CCN(Cc1cc(C(F)(F)F)ccc1-c1cc([C@H](C)C(=O)N[C@H](C)Cc2ccccc2)cc(C(F)(F)F)c1)C(=O)NCc1ccccc1 [Compound 2-11, (S)-2-[2′-(3-Benzyl-1-ethyl-ureidomethyl)-5,4′-bis-trifluoromethyl-biphenyl-3-yl]-N—((R)-1-methyl-2-phenyl-ethyl)-propionamide]
23 | < 300 | CCN(Cc1cc(-c2ncc(OC)cn2)ccc1-c1cc(CC(=O)O)ccc1OC)C(=O)C1CC1 [Compound 1-250, [2′-[(Cyclopropanecarbonyl-ethyl-amino)-methyl]-6-methoxy-4′-(5-methoxy-pyrimidin-2-yl)-biphenyl-3-yl]-acetic acid]
24 | > 30000 | CCN(Cc1cc(C(F)(F)F)ccc1-c1cc([C@@H](C)C(=O)N2C(=O)O[C@@H](c3ccccc3)[C@H]2C)ccc1OC)C(=O)C1CC1 [Compound 2-12, Cyclopropanecarboxylic acid ethyl-{2′-methoxy-5′-[(R)-1-methyl-2-((4R,5S)-4-methyl-2-oxo-5-phenyl-oxazolidin-3-yl)-2-oxo-ethyl]-4-trifluoromethyl-biphenyl-2-ylmethyl}-amide]
25 | < 300 | CCN(Cc1cc(-c2ccc3ncccc3c2)ccc1-c1cc(CC(=O)O)ccc1OC)C(=O)COc1ccc(Cl)cc1 [Compound 1-232, [2′-({[2-(4-Chloro-phenoxy)-acetyl]-ethyl-amino}-methyl)-6-methoxy-4′-quinolin-6-yl-biphenyl-3-yl]-acetic acid]
26 | < 300 | CCN(Cc1cc(C(F)(F)F)ccc1-c1cc(CC(=O)O)cc(C(F)(F)F)c1)C(=O)NCc1ccc(Cl)cc1 [Compound 1-193, {2′-[3-(4-Chloro-benzyl)-1-ethyl-ureidomethyl]-5,4′-bis-trifluoromethyl-biphenyl-3-yl}-acetic acid]
27 | 1000 to 30000 | CCN(Cc1cc(C(F)(F)F)ccc1-c1cc(CC(=O)O)ccc1OC)C(=O)C(C)(C)C [Compound 1-245, (2′-{[(2,2-Dimethyl-propionyl)-ethyl-amino]-methyl}-6-methoxy-4′-trifluoromethyl-biphenyl-3-yl)-acetic acid]
28 | 1000 to 30000 | CCN(Cc1cc(C(F)(F)F)ccc1-c1cc([C@H](C)C(=O)O)ccc1OC)C(=O)C1CC1 [Compound 1-225, (S)-2-{2′-[(Cyclopropanecarbonyl-ethyl-amino)-methyl]-6-methoxy-4′-trifluoromethyl-biphenyl-3-yl}-propionic acid]
